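Cells were grown in 96-well plates and exposed to each compound for 48 hours at five concentrations; endpoints were interpolated linearly between bracketing concentrations, or set to the highest concentration if not reached. TGI marks complete inhibition of growth.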

The subject of one experiment is NCI/ADR-RES ovarian. Nature of the experiment: inhibition of tumour cell growth, NCI panel, 48 h.
In the case of `Nc1nc(Cl)cc(NCC2(CO)CC(CCc3ccccc3)C2)n1` (stereo unspecified), the TGI was over 100 µM.

`O=c1c2ccccc2[nH]c(=S)n1-c1ccc(N=Nc2cccc3c(O)cccc23)cc1` returned a TGI of over 100 µM.

Take `N#C/C(=C\NC(=S)Nc1ccc(S(=O)(=O)Nc2ccccn2)cc1)C(N)=O`: the TGI is over 100 µM.

Take `CC(=O)NC1C(OCc2ccccc2)OC(CO)C(O)C1OCC(=O)N[C@@H](C)C(=O)N[C@H](CCC(=O)NCCNCCNc1c2ccccc2nc2cccc([N+](=O)[O-])c12)C(N)=O` (stereo partly specified): the TGI was over 100 µM.

Take `c1cc2nnc1SCCSCCSc1ccc(nn1)SCCSCCS2`: the TGI is over 100 µM.

In turn, `O=C(Cc1nc2ccc(C(=O)c3ccccc3)cc2[nH]c1=O)C(=O)Nc1ccc(Br)cc1` displayed a TGI of over 100 µM.

Regarding `c1sc(NC2=NCCO2)c2c1CCCC2`, the TGI was over 100 µM.

`CC(=O)C(CN1CCCCC1)C(c1ccccc1)c1c(O)c2ccccc2oc1=O` (stereo unspecified): the TGI is over 100 µM.

For `O=c1oc2ccccc2c(O)c1C(c1cc(OCc2ccccc2)cc(OCc2ccccc2)c1)c1c(O)c2ccccc2oc1=O`, the TGI was found to be 83.9 µM.

For the compound `Cc1cc(-c2nc3ccccc3s2)ccc1NS(=O)(=O)O`, the TGI was over 100 µM.

`Cc1cc2c(c(C(=O)NCCC(=O)O)c1)Oc1c(cc(C)cc1C(=O)NCCC(=O)O)S2` registered a TGI of over 100 µM.

Regarding `c1cc(-c2cnc(-c3ccc4c(c3)CCCO4)o2)ccn1`, the TGI stood at 41.3 µM.

In a further experiment the test system is OVCAR-8 ovarian. Nature of the experiment: inhibition of tumour cell growth, NCI panel, 48 h.
Turning to `O=C1CC2C=CC(O)C(C1)C2` (stereo unspecified), the TGI was over 100 µM.

`COC(=O)C1(Cc2ccccc2)Cc2cc3c(cc2C1=O)CCC3` (stereo unspecified) displayed a TGI of over 100 µM.

`N#CC1=C(N)OC2=C(CSc3ccccc32)C1c1ccc(Br)cc1` (stereo unspecified) registered a TGI of 14.8 µM.

`Cc1sc2nc3n(c(=O)c2c1C)N=CN(c1ccccc1)C3` registered a TGI of over 100 µM.

On to `COc1ccc(N2C(=O)C3c4[nH]c5ccc([N+](=O)[O-])cc5c4C4CCC(C(C)(C)C)CC4C3C2=O)cc1` (stereo unspecified), for which the TGI was over 100 µM.

As to `COC(=O)C1=C(C(=O)OC)C2OC1C1C2C2(C)C(C)=C(C)C1(C)S2=O` (stereo unspecified), the TGI was over 100 µM.

`CC(C)(C)OC(=O)NC(C)(C)C(=O)NCCC(=O)O` returned a TGI of over 100 µM.

Turning to `CCOC(=O)CCC(NC(=O)c1ccc(OCc2nc3cc(C(F)(F)F)ccc3nc2-c2ccccc2)cc1)C(=O)OCC` (stereo unspecified), the TGI is over 100 µM.

As to `O=C(O)c1ccc(NC(c2ccccc2)c2ccc3cccnc3c2O)cc1` (stereo unspecified), the TGI was over 41.5 µM.

Consider `CCOC(=O)c1sc2nc(SC)nc3c2c1N=CN3c1ccc(Br)cc1`, for which the TGI was over 100 µM.

As for `CC[C@@H]1CC[C@@H]2[C@H](CC[C@]3(C)[C@@H](O)CC[C@@H]23)[C@H]1C(=O)O`, the TGI was over 100 µM.

`CCOC(=O)c1c(NC(=O)c2ccccc2)sc2c1CCCC2` came in with a TGI of over 100 µM.

The compound `Nc1nc(Cl)cc(NCC2(CO)CC(CCc3ccccc3)C2)n1` (stereo unspecified) had a TGI of over 100 µM.

`O=c1c2ccccc2[nH]c(=S)n1-c1ccc(N=Nc2cccc3c(O)cccc23)cc1` yielded a TGI of over 100 µM.

In turn, `N#C/C(=C\NC(=S)Nc1ccc(S(=O)(=O)Nc2ccccn2)cc1)C(N)=O` gave a TGI of over 100 µM.

Consider `CC(=O)NC1C(OCc2ccccc2)OC(CO)C(O)C1OCC(=O)N[C@@H](C)C(=O)N[C@H](CCC(=O)NCCNCCNc1c2ccccc2nc2cccc([N+](=O)[O-])c12)C(N)=O` (stereo partly specified), for which the TGI is over 100 µM.

`c1cc2nnc1SCCSCCSc1ccc(nn1)SCCSCCS2` had a TGI of over 100 µM.

As to `O=C(Cc1nc2ccc(C(=O)c3ccccc3)cc2[nH]c1=O)C(=O)Nc1ccc(Br)cc1`, the TGI is over 100 µM.

For `c1sc(NC2=NCCO2)c2c1CCCC2`, the TGI is over 100 µM.

`CC(=O)C(CN1CCCCC1)C(c1ccccc1)c1c(O)c2ccccc2oc1=O` (stereo unspecified) showed a TGI of over 100 µM.

In turn, `O=c1oc2ccccc2c(O)c1C(c1cc(OCc2ccccc2)cc(OCc2ccccc2)c1)c1c(O)c2ccccc2oc1=O` gave a TGI of over 44.5 µM.

The compound `Cc1cc(-c2nc3ccccc3s2)ccc1NS(=O)(=O)O` displayed a TGI of over 100 µM.

For the compound `Cc1cc2c(c(C(=O)NCCC(=O)O)c1)Oc1c(cc(C)cc1C(=O)NCCC(=O)O)S2`, the TGI is over 100 µM.

With `c1cc(-c2cnc(-c3ccc4c(c3)CCCO4)o2)ccn1`, the TGI was 27.6 µM.

Another experiment relates to PC-3 prostate. Nature of the experiment: inhibition of tumour cell growth, NCI panel, 48 h.
The compound `O=C1CC2C=CC(O)C(C1)C2` (stereo unspecified) gave a TGI of over 100 µM.

The compound `COC(=O)C1(Cc2ccccc2)Cc2cc3c(cc2C1=O)CCC3` (stereo unspecified) had a TGI of over 100 µM.

`N#CC1=C(N)OC2=C(CSc3ccccc32)C1c1ccc(Br)cc1` (stereo unspecified) came in with a TGI of 16.8 µM.

On to `Cc1sc2nc3n(c(=O)c2c1C)N=CN(c1ccccc1)C3`, for which the TGI is over 100 µM.

As for `COc1ccc(N2C(=O)C3c4[nH]c5ccc([N+](=O)[O-])cc5c4C4CCC(C(C)(C)C)CC4C3C2=O)cc1` (stereo unspecified), the TGI is over 100 µM.

In the case of `COC(=O)C1=C(C(=O)OC)C2OC1C1C2C2(C)C(C)=C(C)C1(C)S2=O` (stereo unspecified), the TGI was found to be 45.7 µM.

Compound `CC(C)(C)OC(=O)NC(C)(C)C(=O)NCCC(=O)O` registered a TGI of over 100 µM.

With `CCOC(=O)CCC(NC(=O)c1ccc(OCc2nc3cc(C(F)(F)F)ccc3nc2-c2ccccc2)cc1)C(=O)OCC` (stereo unspecified), the TGI was over 100 µM.

As for `O=C(O)c1ccc(NC(c2ccccc2)c2ccc3cccnc3c2O)cc1` (stereo unspecified), the TGI is over 96 µM.

`CCOC(=O)c1sc2nc(SC)nc3c2c1N=CN3c1ccc(Br)cc1`: the TGI is over 100 µM.

Compound `CC[C@@H]1CC[C@@H]2[C@H](CC[C@]3(C)[C@@H](O)CC[C@@H]23)[C@H]1C(=O)O` registered a TGI of over 100 µM.

In turn, `CCOC(=O)c1c(NC(=O)c2ccccc2)sc2c1CCCC2` came in with a TGI of over 100 µM.

The compound `Nc1nc(Cl)cc(NCC2(CO)CC(CCc3ccccc3)C2)n1` (stereo unspecified) gave a TGI of over 100 µM.

With `O=c1c2ccccc2[nH]c(=S)n1-c1ccc(N=Nc2cccc3c(O)cccc23)cc1`, the TGI was over 100 µM.

Turning to `N#C/C(=C\NC(=S)Nc1ccc(S(=O)(=O)Nc2ccccn2)cc1)C(N)=O`, the TGI was over 100 µM.

Take `CC(=O)NC1C(OCc2ccccc2)OC(CO)C(O)C1OCC(=O)N[C@@H](C)C(=O)N[C@H](CCC(=O)NCCNCCNc1c2ccccc2nc2cccc([N+](=O)[O-])c12)C(N)=O` (stereo partly specified): the TGI is 73 µM.

Compound `c1cc2nnc1SCCSCCSc1ccc(nn1)SCCSCCS2` yielded a TGI of over 100 µM.

On to `O=C(Cc1nc2ccc(C(=O)c3ccccc3)cc2[nH]c1=O)C(=O)Nc1ccc(Br)cc1`, for which the TGI is over 100 µM.

In turn, `c1sc(NC2=NCCO2)c2c1CCCC2` returned a TGI of over 100 µM.

Turning to `CC(=O)C(CN1CCCCC1)C(c1ccccc1)c1c(O)c2ccccc2oc1=O` (stereo unspecified), the TGI was over 100 µM.

Compound `O=c1oc2ccccc2c(O)c1C(c1cc(OCc2ccccc2)cc(OCc2ccccc2)c1)c1c(O)c2ccccc2oc1=O` returned a TGI of 21.1 µM.

Compound `Cc1cc(-c2nc3ccccc3s2)ccc1NS(=O)(=O)O` registered a TGI of over 100 µM.

Consider `Cc1cc2c(c(C(=O)NCCC(=O)O)c1)Oc1c(cc(C)cc1C(=O)NCCC(=O)O)S2`, for which the TGI was over 100 µM.

On to `c1cc(-c2cnc(-c3ccc4c(c3)CCCO4)o2)ccn1`, for which the TGI was 24.4 µM.

In another experiment the test system is RPMI-8226 leukemia. As to the kind of experiment: inhibition of tumour cell growth, NCI panel, 48 h.
For `O=C1CC2C=CC(O)C(C1)C2` (stereo unspecified), the TGI is over 100 µM.

On to `COC(=O)C1(Cc2ccccc2)Cc2cc3c(cc2C1=O)CCC3` (stereo unspecified), for which the TGI amounted to 52.5 µM.

As for `N#CC1=C(N)OC2=C(CSc3ccccc32)C1c1ccc(Br)cc1` (stereo unspecified), the TGI was 5.52 µM.

`Cc1sc2nc3n(c(=O)c2c1C)N=CN(c1ccccc1)C3` returned a TGI of over 100 µM.

`COc1ccc(N2C(=O)C3c4[nH]c5ccc([N+](=O)[O-])cc5c4C4CCC(C(C)(C)C)CC4C3C2=O)cc1` (stereo unspecified) displayed a TGI of 89.5 µM.

`COC(=O)C1=C(C(=O)OC)C2OC1C1C2C2(C)C(C)=C(C)C1(C)S2=O` (stereo unspecified) gave a TGI of 31 µM.

Source of the values: PubChem BioAssay (NCI).
